According to article PMC11742122, “Therapeutic Potential of Crocin and Nobiletin in a Mouse Model of Dry Eye Disease: Modulation of the Inflammatory Response and Protection of the Ocular Surface” (Iranian Journal of Pharmaceutical Research : IJPR, 2024):
Marks after values point to notes of the source that are not given here.

Experiments:
HEK-293 cells = assay: MTT cell viability assay; type: cell-based; conditions: Homo sapiens, HEK293, 48-hour treatment
Experimental: The HEK-293 cell line was acquired from the National Cell Bank of Iran, situated at the Pasteur Institute in Tehran. These cells were propagated in Roswell Park Memorial Institute (RPMI) medium, supplemented with 10% fetal bovine serum (FBS), 100 units/mL penicillin, and 100 μg/mL streptomycin. The culture conditions maintained were a humidified incubator set at 37°C, with 5% CO2 and 95% humid air. The culture medium was replenished twice per week until the cells reached 80 - 90% confluency. Subsequently, the cells were dissociated using trypsin and subcultured for passaging and cryopreservation. All experiments were conducted using cells within the passage number range of 3 - 6. Cells were routinely tested for mycoplasma contamination using Hoechst staining. Briefly, cells were fixed and stained with Hoechst 33258 dye, which binds to DNA. Samples were then examined under a fluorescence microscope for the presence of extranuclear DNA, indicative of mycoplasma infection. All cell cultures used in this study were confirmed to be mycoplasma-negative. […] In this study, (1 × 10^4) Hek-293 cells were seeded per well in 96-well plates. […] The measurement of absorbance was performed at an optical density (OD) of 570 nm. Cell viability was assessed by comparing the absorbance values of the drug-treated cells to those of untreated control cells. […]

rabbit eye = assay: Eye irritation test (Draize test) in rabbits' eyes
Experimental: To assess the ocular toxicity of the two compounds, crocin and nobiletin, an in vivo eye irritation test was conducted. The concentrations evaluated were strategically chosen based on the respective IC50 of each compound. Specifically, the concentrations tested included the IC50 value itself, as well as concentrations at one-half and one-quarter of the IC50 value. This approach allowed for a comprehensive evaluation of the potential eye irritation caused by varying levels of exposure to these compounds. The experimental protocol involved the preparation of stock solutions for crocin and nobiletin using DMSO as the solvent at high concentrations. These stock solutions were then diluted with an artificial tear solution to obtain the desired treatment doses for instillation into the eye conjunctiva of the test subjects. Subsequently, the team meticulously observed and recorded any occurrences of eye symptoms, focusing on the iris, cornea, and conjunctiva over periods of 1, 24, 48, and 72 hours ([18]).

TNF-α = TNF-α concentration in LPS-stimulated HEK-293 cell line; type: cell-based; conditions: HEK-293 cells, LPS 1 μg/mL, 48 hours; for TNF-α concentration, higher dose versus lower dose: crocin 68 μM, nobiletin 65.5 μM; for TNF-α concentration (anti-inflammatory effect): crocin 34 and 68 μM, nobiletin 32.75 and 65.5 μM, vs LPS group
Experimental: Figure 3. Tumor necrosis factor-alpha (TNF-α) concentration in HEK-293 cells treated with LPS (1 μg/mL) for 48 hours.

Row | Compound | IC50 (HEK-293 cells) [µM] | highest safe concentration (rabbit eye; rabbit eye irritation test) | ocular observations (rabbit eye; rabbit, in vivo) | TNF-α concentration, higher dose versus lower dose (TNF-α) | TNF-α concentration (anti-inflammatory effect) (TNF-α) | highest safe concentration (rabbit eye; rabbit, in vivo, 72 h)
1 | CC(/C=C/C=C(\C)C(=O)O[C@@H]1O[C@H](CO[C@@H]2O[C@H](CO)[C@@H](O)[C@H](O)[C@H]2O)[C@@H](O)[C@H](O)[C@H]1O)=C\C=C\C=C(C)\C=C\C=C(/C)C(=O)O[C@@H]1O[C@H](CO[C@@H]2O[C@H](CO)[C@@H](O)[C@H](O)[C@H]2O)[C@@H](O)[C@H](O)[C@H]1O [Crocin] | 136 | 34 ^a µM | ocular turbidity was observed, along with mild conjunctival hyperemia | superior anti-inflammatory efficacy compared to their lower-dose counterparts | exhibited anti-inflammatory properties at all tested concentrations | 
2 | COc1ccc(-c2cc(=O)c3c(OC)c(OC)c(OC)c(OC)c3o2)cc1OC [Nobiletin] | 131 |  | ocular turbidity was observed, along with mild conjunctival hyperemia | superior anti-inflammatory efficacy compared to their lower-dose counterparts | exhibited anti-inflammatory properties at all tested concentrations | 32.75 ^a µM
